From patent US20180110871A1, “DUAL DISULFIDE DRUG CONJUGATES” (ENDOCYTE, INC., priority 2015, published 2018)

Columns and labels:
KB cells = test: In vitro activity in KB cells (3H-thymidine incorporation); assay type: cell-based; details: 3H-thymidine incorporation relative to untreated controls
Experimental: Cells were seeded in 24-well Falcon plates and allowed to form nearly confluent monolayers overnight. After one rinse with 1 mL of fresh FFRPMI/HIFCS, each well received 1 mL, of medium containing increasing concentrations of test agent (3 wells per sample). Cells were pulsed with targeted agents for 2 hr at 37° C., rinsed 4 times with 0.5 mL of medium, and then chased in 1 mL of fresh medium up to 70 hr. Cells were treated with non-targeted agent EC0347 for a continuous 72 h. Spent medium was aspirated from all wells and replaced with fresh medium containing 5 μCi/mL ^3H-thymidine. After a further 2 hr 37° C. incubation, cells were washed 3 times with 0.5 mL of PBS and then treated with 0.5 mL of ice-cold […] per well. After 15 min, the trichloroacetic acid was aspirated and the cell material solubilized by the addition of 0.5 mL of 0.25 N sodium hydroxide for 15 min. Four hundred and fifty microliters of each solubilized sample were transferred to scintillation vials containing 3 mL of Ecolume scintillation cocktail and then counted in a liquid scintillation counter. Final tabulated results were expressed as the percentage of ^3H-thymidine incorporation relative to untreated controls and IC50 values calculated using Graphpad Prism software.

subcutaneous KB tumors = test: Antitumor activity in KB tumor model; assay type: in vivo, Female Balb/c nu/nu mice; details: FIG. 1; 2 μmol/kg, single-dose; n=5; mice with subcutaneous KB tumors
Experimental: Female Balb/c nu/nu mice were fed ad libitum with folate-deficient chow (Harlan diet #TD01013) for the duration of the experiment. KB tumor cells were inoculated subcutaneously at the right flank of each mouse. Mice were dosed after the tumors have reached a range of 107-152 mm^3 through the lateral tail vein under sterile conditions in a volume of 200 μL of phosphate-buffered saline (PBS).
Growth of each s.c. tumor was followed by measuring the tumor two times per week. Tumors were measured in two perpendicular directions using Vernier calipers, and their volumes were calculated as 0.5×L×W^2, where L=measurement of longest axis in mm and W=measurement of axis perpendicular to L in mm.

Structure (SMILES)	IC50 (KB cells; targeted agents pulsed 2 hr at 37° C., chased up to 70 hr)	cure (number of mice) (subcutaneous KB tumors)	IC50 (KB cells; Homo sapiens, non-targeted agent, continuous 72 h)
C#CCN(Cc1ccc2nc(N)[nH]c(=O)c2c1)c1ccc(C(=O)N[C@@H](CCC(=O)OCCSSC[C@H](NC(=O)[C@H](CCC(=O)NC[C@H](O)[C@@H](O)[C@H](O)[C@H](O)CO)NC(=O)[C@H](CCC(=O)O)NC(=O)[C@H](CCC(=O)NC[C@H](O)[C@@H](O)[C@H](O)[C@H](O)CO)NC(=O)[C@H](CCC(=O)O)NC(=O)[C@H](CCC(=O)NC[C@H](O)[C@@H](O)[C@H](O)[C@H](O)CO)NC(=O)CCSSCCOC(=O)NNC(=O)[C@@H](C)C[C@H](Cc2ccc(O)cc2)NC(=O)c2csc([C@@H](C[C@H](C(C)C)N(COC(=O)CCC)C(=O)[C@@H](NC(=O)[C@H]3CCCCN3C)C(C)CC)OC(C)=O)n2)C(=O)O)C(=O)O)cc1 (stereo partly drawn) [EC2133]	0.8 nM	1	
CCCC(=O)OCN(C(=O)[C@@H](NC(=O)[C@H]1CCCCN1C)C(C)CC)[C@H](C[C@@H](OC(C)=O)c1nc(C(=O)N[C@@H](Cc2ccc(O)cc2)C[C@H](C)C(=O)NN)cs1)C(C)C (stereo partly drawn) [EC0347, Tubulysin B Hydrazide, reference compound]			1.5 nM
